Results from the NIST ThermoML archive (doi:10.1016/j.fluid.2018.07.028).
Numbers after ± are expanded uncertainties.

Test: activity coefficient (dimensionless); of the first substance listed, at infinite dilution; xn = mol fraction of the nth substance listed
Conditions: 101.33 kPa, Liquid, Chromatography, x1 = 0

Structure (SMILES) | activity coefficient (358.15 K) | activity coefficient (368.15 K) | activity coefficient (378.15 K) | activity coefficient (388.15 K) | activity coefficient (398.15 K) | activity coefficient (408.15 K)
C=Cc1ccccc1 [styrene] + CCCC[P+](CCCC)(CCCC)CCCC.O=S(=O)([N-]S(=O)(=O)C(F)(F)F)C(F)(F)F | 1.01 ± 0.06 | 1.05 ± 0.07 | 1.1 ± 0.07 | 1.14 ± 0.07 | 1.18 ± 0.08 | 1.23 ± 0.08
CCOC(C)(C)C [2-ethoxy-2-methylpropane] + CCCC[P+](CCCC)(CCCC)CCCC.O=S(=O)([N-]S(=O)(=O)C(F)(F)F)C(F)(F)F | 2.72 ± 0.19 | 2.78 ± 0.19 | 2.84 ± 0.19 | 2.91 ± 0.2 | 2.96 ± 0.2 | 3.02 ± 0.21
CCc1ccccc1 [ethylbenzene] + CCCC[P+](CCCC)(CCCC)CCCC.O=S(=O)([N-]S(=O)(=O)C(F)(F)F)C(F)(F)F | 1.49 ± 0.1 | 1.54 ± 0.1 | 1.58 ± 0.1 | 1.63 ± 0.11 | 1.67 ± 0.11 | 1.71 ± 0.11
CCO [ethanol] + CCCC[P+](CCCC)(CCCC)CCCC.O=S(=O)([N-]S(=O)(=O)C(F)(F)F)C(F)(F)F | 1.42 ± 0.09 | 1.36 ± 0.09 | 1.31 ± 0.09 | 1.26 ± 0.08 | 1.22 ± 0.08 | 1.18 ± 0.08
Cc1ccccc1 [toluene] + CCCC[P+](CCCC)(CCCC)CCCC.O=S(=O)([N-]S(=O)(=O)C(F)(F)F)C(F)(F)F | 1.11 ± 0.07 | 1.16 ± 0.07 | 1.2 ± 0.08 | 1.24 ± 0.08 | 1.28 ± 0.08 | 1.32 ± 0.09
CCOCC [diethyl ether] + CCCC[P+](CCCC)(CCCC)CCCC.O=S(=O)([N-]S(=O)(=O)C(F)(F)F)C(F)(F)F | 1.65 ± 0.11 | 1.7 ± 0.11 | 1.76 ± 0.12 | 1.8 ± 0.12 | 1.86 ± 0.13 | 1.91 ± 0.13
CCCCO [butan-1-ol] + CCCC[P+](CCCC)(CCCC)CCCC.O=S(=O)([N-]S(=O)(=O)C(F)(F)F)C(F)(F)F | 1.67 ± 0.11 | 1.61 ± 0.11 | 1.56 ± 0.1 | 1.51 ± 0.1 | 1.46 ± 0.1 | 1.42 ± 0.09
C=CCCCCCC [oct-1-ene] + CCCC[P+](CCCC)(CCCC)CCCC.O=S(=O)([N-]S(=O)(=O)C(F)(F)F)C(F)(F)F | 4.9 ± 0.33 | 4.92 ± 0.34 | 4.94 ± 0.34 | 4.96 ± 0.34 | 4.98 ± 0.34 | 5.01 ± 0.34
C1=CCCCC1 [cyclohexene] + CCCC[P+](CCCC)(CCCC)CCCC.O=S(=O)([N-]S(=O)(=O)C(F)(F)F)C(F)(F)F | 2.24 ± 0.15 | 2.27 ± 0.15 | 2.29 ± 0.16 | 2.32 ± 0.16 | 2.34 ± 0.16 | 2.37 ± 0.16
CO [methanol] + CCCC[P+](CCCC)(CCCC)CCCC.O=S(=O)([N-]S(=O)(=O)C(F)(F)F)C(F)(F)F | 1.28 ± 0.08 | 1.23 ± 0.08 | 1.18 ± 0.08 | 1.14 ± 0.07 | 1.1 ± 0.07 | 1.06 ± 0.07
C1CCOC1 [tetrahydrofuran] + CCCC[P+](CCCC)(CCCC)CCCC.O=S(=O)([N-]S(=O)(=O)C(F)(F)F)C(F)(F)F | 0.622 ± 0.043 | 0.653 ± 0.045 | 0.682 ± 0.046 | 0.712 ± 0.047 | 0.742 ± 0.049 | 0.772 ± 0.05
